The values that follow come from US11364246B2, “Compounds” (TMEM16A Limited, priority 2019, dated 2022).

This assay concerns the target human TMEM16A (Homo sapiens, UniProt Q5XXA6). Nature of the assay: Automated whole-cell patch clamp (Qpatch) assay to detect TMEM16A activity in recombinant cells. To be noted: 3.33 μM test compound; % increase of baseline TMEM16A current; FRT cells stably expressing human TMEM16A (TMEM16Aabc variant); intracellular calcium at EC20. Format: cell-based. Here is the method:
Automated Whole-Cell Patch Clamp Assay to Detect TMEM16A Activity in Recombinant Cells
Fisher rat thyroid (FRT) cells stably expressing human TMEM16A (TMEM16Aabc variant; Dr Luis Galietta, Insituto Giannina, Italy) were cultured in T-75 flasks in Hams F-12 media with Coon's modification (Sigma) supplemented with 10% (v/v) foetal bovine serum, penicillin-streptomycin (10,000 U/mL/10000 pg/mL), G-418 (750 pg/mL), L-glutamine (2 mM) and sodium bicarbonate solution (7.5% v/v). At −90% confluence cells were harvested for experiments by detachment with a 2:1 (v/v) mixture of Detachin (BMS Biotechnology) and 0.25% (w/v) trypsin-EDTA. Cells were diluted to a density of 3.5-4.5×10^6 cells/mL with media consisting of CHO-S-SFM (Sigma), 25 mM HEPES (Sigma) and Soy bean trypsin inhibitor (Sigma).
FRT-TMEM16A cells were whole-cell patch clamped using an automated planar patch clamp system (Qpatch, Sophion). Briefly, once high resistance (GOhm) seals were established between the cells and the planar recording array the patch was ruptured using suction pulses to establish the whole-cell recording configuration of the patch clamp technique. The assay employed the following solutions (all reagents Sigma): Intracellular solution (mM): N-methyl-D-glucamine 130, CaCh 18.2, MgCh 1. HEPES 10, EGTA 10, BAPTA 20, Mg-ATP 2, pH 7.25, 325 mOsm with sucrose.
Extracellular solution (mM): N-methyl-D-glucamine 130, CaCl2 2, MgCh 1, HEPES 10, pH 7.3, 320 mOsm with sucrose.
The intracellular solution buffers intracellular calcium at levels required to give −20% activation of the maximal TMEM16A mediated current (EC20 for calcium ions). Cells were voltage clamped at a holding potential of −70 mV and a combined voltage step (to +70 mV)/ramp (−90 my to +90 mV) was applied at 0.05 Hz. After a period of current stabilisation test compounds, solubilised in 100% (v/v) DMSO and subsequently diluted into extracellular solution, were applied to generate a cumulative concentration response curve. Each concentration of test compound was incubated for 5 minutes before addition of the next concentration. After the final concentration was tested a supramaximal concentration of either a known active positive modulator or the TMEM16A inhibitor. CaCCinhAOI (Del La Fuente et al, 2008) was added to define the upper and lower limits of the assay.
Compound activity was quantified by measuring the increase in current upon compound addition and expressing this as a percentage increase of baseline TMEM16A current level. […]
Peak TMEM16A current at +70 mV was plotted as a function of time over the assay period. Baseline current (IBL) was measured after a period of stabilisation. The increase in current for each compound addition was determined by taking the peak current during the incubation period and subtracting the current from the previous recording period and then expressing this as a percentage of the baseline current. […]
For each additional concentration tested the increase in current was determined by subtracting the current from the previous incubation period and normalising the baseline value—for test concentration 2 in FIG. 1 this is: (I[#2]−I[# ? /IBL)×100
The values for each test concentration were plotted as a cumulative function of concentration eg. for test concentration two this would be the sum of the peak changes measured during concentration one plus concentration two.
Regarding `CC(C)(C)NC(=O)c1cc(NC(=O)[C@@H]2CCc3ccccc32)ccn1` (single isomer, unassigned) [Example 21a, N-tert-Butyl-4-[[(1R)-indane-1-carbonyl]amino]pyridine-2-carboxamide or N-tert-Butyl-4-[[(1S)-indane-1-carbonyl]amino]pyridine-2-carboxamide], the “% Potentiation @ 3.33 μM Avg” value is on record as 99%.

For `C#CC(C)(C)NC(=O)c1cc(NC(=O)Cc2cccc3cc[nH]c23)ccn1` [Example 79.3, N-(1,1-Dimethylprop-2-ynyl)-4-[[2-(1H-indol-7-yl)acetyl]amino]pyridine-2-carboxamide], the “% Potentiation @ 3.33 μM Avg” value turned out to be 64%.

Take `O=C(Cc1cc(Cl)ccc1O)Nc1ccnc(C(=O)N[C@@]2(CO)CCOC2)c1` (single isomer, unassigned) [Example 35b, 4-[[2-(5-Chloro-2-hydroxy-phenyl)acetyl]amino]-N-[(3R)-3-(hydroxymethyl)tetrahydrofuran-3-yl]pyridine-2-carboxamide or 4-[[2-(5-chloro-2-hydroxy-phenyl)acetyl]amino]-N-[(3S)-3-(hydroxymethyl)tetrahydrofuran-3-yl]pyridine-2-carboxamide]: the “% Potentiation @ 3.33 μM Avg” value worked out at 190%. For `O=C(Cc1cc(Cl)ccc1O)Nc1ccnc(C(=O)NC23CCC(F)(C2)C3)c1` [Example 44, 4-[[2-(5-Chloro-2-hydroxy-phenyl)acetyl]amino]-N-(4-fluoro-1-bicyclo[2.1.1]hexanyl)pyridine-2-carboxamide] the value was 1%; for `CC(C)(C)NC(=O)c1cc(NC(=O)C2(c3cccc(Cl)c3)CC2)ccn1` [Example 5.31, N-tert-butyl-4-[[1-(3-chlorophenyl)cyclopropanecarbonyl]amino]pyridine-2-carboxamide], 145%.
